In paper PMC10046037, “GABRG2 Variants Associated with Febrile Seizures” (Biomolecules, 2023):

Molecular target: T1, α1β3γ2 GABAA receptor, γ2R215H variant (Homo sapiens, UniProt P14867+P18507+P28472, R215H)
T1 construct: expressed in transfected cells; host or cells: HEK293T
T1 sequence (P14867 28-456): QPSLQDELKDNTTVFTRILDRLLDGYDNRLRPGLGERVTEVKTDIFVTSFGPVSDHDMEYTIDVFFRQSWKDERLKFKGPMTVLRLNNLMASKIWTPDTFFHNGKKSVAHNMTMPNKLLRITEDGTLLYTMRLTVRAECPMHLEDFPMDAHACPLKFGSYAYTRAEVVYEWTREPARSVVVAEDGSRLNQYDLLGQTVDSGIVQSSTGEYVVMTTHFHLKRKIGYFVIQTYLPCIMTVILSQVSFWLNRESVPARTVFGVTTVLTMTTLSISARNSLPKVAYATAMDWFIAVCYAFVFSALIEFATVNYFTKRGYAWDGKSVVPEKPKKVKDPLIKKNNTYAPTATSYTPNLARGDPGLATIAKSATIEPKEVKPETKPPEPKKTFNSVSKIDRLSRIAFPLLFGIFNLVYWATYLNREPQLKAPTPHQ
T1 sequence (P28472 26-473 isoform P28472-2): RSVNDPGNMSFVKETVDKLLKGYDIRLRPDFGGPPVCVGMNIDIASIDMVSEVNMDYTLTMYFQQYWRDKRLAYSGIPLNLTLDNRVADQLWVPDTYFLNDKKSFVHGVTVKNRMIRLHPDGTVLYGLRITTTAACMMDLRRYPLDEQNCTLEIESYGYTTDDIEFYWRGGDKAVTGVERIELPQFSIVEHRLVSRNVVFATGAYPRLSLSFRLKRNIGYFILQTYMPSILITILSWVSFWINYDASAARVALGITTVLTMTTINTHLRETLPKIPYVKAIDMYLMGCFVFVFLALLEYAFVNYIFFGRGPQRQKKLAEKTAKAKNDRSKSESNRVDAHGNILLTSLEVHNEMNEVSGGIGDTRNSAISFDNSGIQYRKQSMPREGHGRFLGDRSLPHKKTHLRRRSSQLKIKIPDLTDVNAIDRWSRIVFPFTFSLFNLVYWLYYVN
T1 sequence (P18507 40-475 R215H): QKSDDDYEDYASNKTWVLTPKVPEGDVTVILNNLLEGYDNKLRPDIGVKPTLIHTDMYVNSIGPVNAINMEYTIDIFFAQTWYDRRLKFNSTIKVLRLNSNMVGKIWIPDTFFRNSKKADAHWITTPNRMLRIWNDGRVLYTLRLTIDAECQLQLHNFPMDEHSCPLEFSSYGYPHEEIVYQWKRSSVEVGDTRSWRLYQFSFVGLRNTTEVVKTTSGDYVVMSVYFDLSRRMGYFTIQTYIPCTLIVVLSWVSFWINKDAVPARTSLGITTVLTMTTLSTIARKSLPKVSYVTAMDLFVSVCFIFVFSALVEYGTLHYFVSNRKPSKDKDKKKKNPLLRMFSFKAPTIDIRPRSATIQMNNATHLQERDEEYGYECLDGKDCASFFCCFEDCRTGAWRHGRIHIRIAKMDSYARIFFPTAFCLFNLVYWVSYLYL
Experiment: Automated patch clamp of GABA-elicited currents (SyncroPatch 384PE), γ2R215H
Assay type: cell-based
Settings: mean
Protocol: The coding sequences of human α1 (GABRA1, NM_000806), β3 (GABRB3, NM_021912), and γ2 (GABRG2, NM_198904.2) GABAAR subunits were subcloned into the pcDNA3.1 expression vectors (Invitrogen, Waltham, MA, USA).
HEK293T cells (ATCC, CRL-11268) were cultured at 37 °C in a humidified 5% CO2 incubator and maintained in Dulbecco’s modified Eagle’s medium (Invitrogen) supplemented with 10% fetal bovine serum (Life Technologies, Carlsbad, CA, USA), and 100 IU/mL of penicillin/streptomycin (Life Technologies). For the expression experiments, 4 × 10^5 cells were transfected using polyethylenimine (PEI) reagent (40 kD, Polysciences, Warrington, PA, USA) at a DNA: to transfection reagent ratio of 1:2.5 and harvested 36 h after transfection. To express WT and variant α1β3γ2 receptors, a total of 3 µg of α1, β3, and γ2 (WT or mutant) subunit cDNAs were transfected at a ratio of 1:1:1 into 60 mm culture dishes. For the mock-transfected condition, an empty pcDNA3.1 vector was added for a final cDNA transfection amount of 3 μg. For the electrophysiology experiments, 2.5 × 10^5 cells were plated in 100 mm culture dishes and transfected after 24 h with 3 μg of cDNA of each α1, β3, γ2 (wild-type or mutant) subunit, using X-tremeGENE HP DNA transfection Reagent (Roche Diagnostics, Basel, Switzerland), following the manufacturer’s protocol. Recordings were obtained forty-eight hours after transfection.
Whole-cell patch clamp recordings were conducted according to the manufacturer’s standard procedure for the SyncroPatch 384 [31]. […] Using PatchControl 384, electrophysiological parameters, such as seal resistance, capacitance, and series resistance, were determined for each well after the application of a test pulse, and subsequently monitored over time. […] The currents were normalized to the maximal response of each well, and the concentration–response curves were calculated from single-point additions. The EC50 values for each variant or wild-type receptor were calculated across multiple wells for each experimental condition.

NCCCC(=O)O [GABA, γ-aminobutyric acid]
IMAX (maximal GABA-evoked peak current) (1 mM GABA for 5 ms, HEK293T): 0.61 nA | IMAX variant/IMAX WT (1 mM GABA): 30.44% | Rise Time (10–90% rise time, 1 mM GABA for 5 ms, HEK293T): 31.68 ms
